# Results reported in patent US20110256557A1, “IDENTIFYING PARATHYROID HORMONE AGONISTS AND ANTAGONISTS” (DISCOVERYBIOMED, INC., priority 2008, published 2011).
# T1: PTH1R on cell surface (Homo sapiens, UniProt Q03431)
# T1 construct: HA; expressed in transfected cells; LRP6N-IgG conditioned medium came from transfected HEK 293 cells
# T1 sequence (Q03431 27-593): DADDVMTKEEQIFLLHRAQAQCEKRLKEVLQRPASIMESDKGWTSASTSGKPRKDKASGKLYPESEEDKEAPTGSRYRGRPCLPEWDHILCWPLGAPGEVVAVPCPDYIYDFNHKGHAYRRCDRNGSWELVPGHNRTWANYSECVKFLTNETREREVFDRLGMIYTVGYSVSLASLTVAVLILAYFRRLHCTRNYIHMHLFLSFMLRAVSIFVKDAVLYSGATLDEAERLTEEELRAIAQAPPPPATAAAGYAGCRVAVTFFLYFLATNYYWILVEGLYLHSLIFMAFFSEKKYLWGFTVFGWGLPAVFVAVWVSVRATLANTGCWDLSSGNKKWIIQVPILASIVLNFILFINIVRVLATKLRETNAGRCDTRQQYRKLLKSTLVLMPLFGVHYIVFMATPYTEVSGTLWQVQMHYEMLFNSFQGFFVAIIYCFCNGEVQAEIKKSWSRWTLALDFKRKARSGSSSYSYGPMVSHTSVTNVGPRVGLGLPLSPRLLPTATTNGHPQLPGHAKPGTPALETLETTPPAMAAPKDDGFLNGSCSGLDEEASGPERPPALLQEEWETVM
# T2: LRP6-PTH1R complex (Rattus norvegicus, UniProt P25961)
# T2 construct: endogenous LRP6 and endogenous PTH1R in UMR-106 cells; endogenous in cells; host or cells: UMR-106
# T2 sequence (P25961 27-591): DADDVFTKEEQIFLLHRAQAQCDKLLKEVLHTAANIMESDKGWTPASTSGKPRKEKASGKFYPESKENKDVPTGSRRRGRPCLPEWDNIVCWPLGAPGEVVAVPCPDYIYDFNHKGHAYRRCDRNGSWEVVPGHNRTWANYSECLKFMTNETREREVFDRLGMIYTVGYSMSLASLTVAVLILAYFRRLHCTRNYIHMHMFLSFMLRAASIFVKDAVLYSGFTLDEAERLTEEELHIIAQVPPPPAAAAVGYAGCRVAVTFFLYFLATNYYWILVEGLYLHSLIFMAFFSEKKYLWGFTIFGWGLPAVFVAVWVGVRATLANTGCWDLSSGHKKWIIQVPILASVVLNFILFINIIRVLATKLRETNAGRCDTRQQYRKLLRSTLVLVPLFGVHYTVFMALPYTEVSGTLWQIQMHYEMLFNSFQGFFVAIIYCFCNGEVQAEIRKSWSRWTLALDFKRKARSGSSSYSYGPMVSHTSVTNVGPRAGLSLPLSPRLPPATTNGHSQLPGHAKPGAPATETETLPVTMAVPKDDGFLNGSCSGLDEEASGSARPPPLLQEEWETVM
# B1: LRP6N-IgG: LRP6 extracellular domain fused with IgG (protein)
# chain: APLLLYANRRDLRLVDATNGKENATIVVGGLEDAAAVDFVFSHGLIYWSDVSEEAIKRTEFNKTESVQNVVVSGLLSPDGLACDWLGEKLYWTDSETNRIEVSNLDGSLRKVLFWQELDQPRAIALDPSSGFMYWTDWGEVPKIERAGMDGSSRFIIINSEIYWPNGLTLDYEEQKLYWADAKLNFIHKSNLDGTNRQAVVKGSLPHPFALTLFEDILYWTDWSTHSILACNKYTGEGLREIHSDIFSPMDIHAFSQQRQPNATNPCGIDNGGCSHLCLMSPVKPFYQCACPTGVKLLENGKTCKDGATELLLLARRTDLRRISLDTPDFTDIVLQLEDIRHAIAIDYDPVEGYIYWTDDEVRAIRRSFIDGSGSQFVVTAQIAHPDGIAVDWVARNLYWTDTGTDRIEVTRLNGTMRKILISEDLEEPRAIVLDPMVGYMYWTDWGEIPKIERAALDGSDRVVLVNTSLGWPNGLALDYDEGKIYWGDAKTDKIEVMNTDGTGRRVLVEDKIPHIFGFTLLGDYVYWTDWQRRSIERVHKRSAEREVIIDQLPDLMGLKATNVHRVIGSNPCAEENGGCSHLCLYRPQGLRCACPIGFELISDMKTCIVPEAFLLFSRRADIRRISLETNNNNVAIPLTGVKEASALDFDVTDNRIYWTDISLKTISRAFMNGSALEHVVEFGLDYPEGMAVDWLGKNLYWADTGTNRIEVSKLDGQHRQVLVWKDLDSPRALALDPAEGFMYWTEWGGKPKIDRAAMDGSERTTLVPNVGRANGLTIDYAKRRLYWTDLDTNLIESSNMLGLNREVIADDLPHPFGLTQYQDYIYWTDWSRRSIERANKTSGQNRTIIQGHLDYVMDILVFHSSRQSGWNECASSNGHCSHLCLAVPVGGFVCGCPAHYSLNADNRTCSAPTTFLLFSQKSAINRMVIDEQQSPDIILPIHSLRNVRAIDYDPLDKQLYWIDSRQNMIRKAQEDGSQGFTVVVSSVPSQNLEIQPYDLSIDIYSRYIYWTCEATNVINVTRLDGRSVGVVLKGEQDRPRAVVVNPEKGYMYFTNLQERSPKIERAALDGTEREVLFFSGLSKPIALALDSRLGKLFWADSDLRRIESSDLSGANRIVLEDSNILQPVGLTVFENWLYWIDKQQQMIEKIDMTGREGRTKVQARIAQLSDIHAVKELNLQEYRQHPCAQDNGGCSHICLVKGDGTTRCSCPMHLVLLQDELSCGEPPTCSPQQFTCFTGEIDCIPVAWRCDGFTECEDHSDELNCPVCSESQFQCASGQCIDGALRCNGDANCQDKSDEKNCEVLCLIDQFRCANGQCIGKHKKCDHNVDCSDKSDELDCYPTEEPAPQA
# modifications: left off: a dimerising Fc or GST
# B2: LRP6N: soluble N-terminal (extracellular) domain of LRP6; acts as a dominant-negative in PTH signaling (protein)
# chain: B1 chain
# modifications: left off: a dimerising Fc or GST
# notes: soluble N-terminal (extracellular) domain of LRP6; acts as a dominant-negative in PTH signaling
# Assays:
# [1] = test system: luciferase reporter bearing TCF/LEF binding elements; experiment: TCF/LEF luciferase reporter assay in UMR-106 cells; assay type: cell-based, rat; settings: for effect on PTH-stimulated TCF/LEF luciferase (transcriptional) activity: UMR-106 cells treated with PTH
# Description: HEK293, UMR-106 and mouse embryonic fibroblast (MEF) cells were maintained in Dulbecco's Modified Eagle Medium (DMEM) with 10% Fetal Calf Serum (FCS). Mouse Wnt3a conditioned medium (Wnt3a CM) was produced from mouse L cells stably transfected with mouse Wnt3a (American Type Culture Collection; Manassas, Va.) and control conditioned medium (Control CM) was from non-transfected L cells. IgG, LRP6N-IgG, DKK1, Sclerostin, VSVG-LRP6N and Myc-Fz8CRD conditioned media were produced from HEK 293 cells transfected with the individual plasmids. Transfections were carried out using lipofectamine reagent (Invitrogen; Carlsbad, Calif.). Luciferase assays were carried out in either UMR-106 or HEK 293 cells as described previously (Wan et al., Am. J. Pathol. 166:1379-92 (2005)), with 0.3 μg of TCF-Luc reporter plasmid plus 50 ng of Renilla luciferase plasmid (internal control) per well in the 12-well plate. Experiments were repeated at least three times with triplicate for each experiment.
# β-catenin = experiment: Western blot of cytosolic β-catenin in UMR-106 cells; assay type: cell-based, rat
# Experimental: (§1) Cells were harvested in cavitation buffer (5 mM HEPES, pH 7.4, 3 mM MgCl2, 1 mM EGTA, 250 mM sucrose) containing protease and phosphatase inhibitors and homogenized by nitrogen cavitation (200 p.s.i., for 5 minutes) in a cell disruption bomb (Parr Instrument Co.; Moline, Ill.). The cell homogenate was centrifuged twice at 700 g for 10 minutes to pellet the nuclei. The supernatant was further centrifuged at 100,000 g (Beckman SW50.1 rotor) for 1 hour to separate the membrane and cytosol fractions, and the resulting membrane pellet was washed three times with cavitation buffer before use in the assays (Zhang et al., Biochem. J. 343:541-9 (1999)). Immunoprecipitation and Western blot analysis of cell lysates were performed as described previously (Wan et al., Am. J. Pathol. 166:1379-92 (2005)).
# LRP6 = LRP6 phosphorylation at PPPSP motifs, western blotting with Ab1490, UMR-106 cells; assay type: cell-based, rat; settings: cells not given
# Experimental: as §1
# As phosphorylation of LRP6 at the PPPSP motifs plays a crucial role in activating downstream β-catenin signaling by Wnt, whether PTH induces phosphorylation of LRP6 at PPPSP motifs (Mao et al., Mol. Cell. 7:801-9 (2001); Tamai et al., Mol. Cell. 13:149-56 (2004); Davidson et al., Nature 438:867-72 (2005); Zeng et al., Nature 438:873-7 (2005)). Immunoprecipitated LRP6 from extracts of PTH-treated UMR-106 cells were monitored for their phosphorylation, by western blotting, with an antibody that recognizes phosphorylated PPPSP motifs (Ab1490) (Tamai et al., Mol. Cell. 13:149-56 (2004)). […] Phosphorylation of PPPSP motifs is required for axin recruitment from cytoplasm to LRP6 at cell membrane. […] Fz8CRD, a competitive inhibitor of the Wnt receptor Fz (Hsieh et al., Proc. Natl. Acad. Sci. USA 96:3546-55 (1999)), was used to exclude the possibility that these PTH effects are mediated through promotion of Wnts production or sensitization of Wnt-stimulated signaling. […] In contrast, LRP6N blocked PTH-stimulated LRP6 phosphorylation (FIG. 33).
# axin-LRP6 binding = experiment: Co-IP of axin binding to LRP6 in HEK293 cells; assay type: cell-based
# Experimental: as §1
# [2] = test system: TCF/LEF luciferase reporter; experiment: High-throughput screen validation, TCF/LEF luciferase reporter in osteosarcoma cell line; assay type: cell-based; settings: 96-well plate
# Experimental: Osteosarcoma cells were plated in a 96 well plate. The cells were transiently transfected with the TCF/LEF luciferase reporter using LipofectAMINE PLUS (Invitrogen; Carlsbad, Calif.). The cells were incubated overnight at 37° C. in OptiMEM-1 serum-free medium with the transfection reagents. The cells were washed and serum-containing medium was added to the cells for 8 hours. The serum-containing medium was replaced with serum-free medium and the cells were stimulated overnight with PTH and WNT3a. Supernatant from the stimulated cells was collected for detection of osteosclerostin, and the cells were subjected to a luciferase assay as previously described (Wan et al., Am. J. Pathol. 166:1379-92 (2005)).
# To determine agonists and antagonists of the additive signaling of the PTH receptor and the WNT receptor, (as well as any co-receptors) in bone cells, a high-throughput screen is designed. […] An osteosarcoma cell line is transiently transfected with a TCF/LEF luciferase reporter. The cells are treated with WNT3a and PTH and luciferase activity is determined (FIG. 46).
# PTH1R on cell surface = molecular target: T1, PTH1R on cell surface; experiment: Cell surface binding by immunofluorescence colocalization assay; assay type: cell-based
# Experimental: Cells were transfected with HA-PTH1R and treated with IgG conditioned medium or LRP6N-IgG conditioned medium for 1 hour followed by PTH (1-84) treatment for 15 minutes. Cells were then washed with phosphate buffered saline (PBS), fixed with 4% paraformaldehyde, permeabilized with 0.1% Triton X-100, and incubated with primary antibody followed by incubation with chromophore-conjugated secondary antibody. Digital pictures were taken using an Olympus, IX TRINOC camera fitted to an Olympus, IX70 Inverted Research Microscope (Olympus; Center Valley, Pa.) with objective lenses of Hoffman Modulation Contrast®, HMC 10 LWD PL FL, 0.3NA ∝/1, at room temperature, and processed using MagnaFire® SP imaging software. A […] TCs SP2 system was used for confocal imaging. The ratios of the number of cells showing in green to the number of cells showing in red were calculated. For each treatment, 100 cells on each of three different slides were analyzed.
# LRP6-PTH1R complex = molecular target: T2, LRP6-PTH1R complex; experiment: Co-immunoprecipitation of endogenous LRP6 and PTH1R in UMR-106 cells; assay type: cell-based
# Experimental: as §1
molecule,measurement,setting,value
O=S(=O)(NCCNC/C=C/c1ccc(Br)cc1)c1cccc2cnccc12 [H89],effect on Wnt3a-stimulated β-catenin-dependent transcription activity (TCF4/LEF luciferase),[1]; UMR-106 cells,did not affect
same,effect on PTH-stimulated TCF/LEF luciferase (transcriptional) activity,[1],reduced
same,effect on PTH-induced β-catenin stabilization,β-catenin,reduced
same,effect on Wnt3a-stimulated β-catenin stabilization,β-catenin,did not affect
same,effect on Wnt3a-stimulated LRP6 phosphorylation,LRP6,did not affect
same,effect on binding of axin to LRP6 in cells treated with PTH,axin-LRP6 binding; PTH-treated cells,reduced
"PTH (39-84): C-terminal fragment of PTH; binds PTH1R but does not activate PKA (APLAPRDAGSQRPRKKEDNVLVESHEKSLGEADKADVNVLTKAKSQ; Parathyroid hormone; UniProt P01270 70-115, looked up, fragment)",activating β-catenin signaling (TCF4/LEF luciferase) compared with PTH (1-84),[1]; UMR-106 cells,much less effective than PTH (1-84)
same,altering the stability of β-catenin compared with PTH (1-84),β-catenin,much less effective than PTH (1-84)
same,inducing axin-LRP6 binding compared with PTH (1-84),axin-LRP6 binding,much less effective than PTH (1-84)
WNT3a,"stimulation of the TCF/LEF luciferase reporter, treatment alone",[2],stimulates
B1,immuno-colocalization with PTH1R on cell surface,"PTH1R on cell surface; with addition of PTH ligand (PTH (1-84), 15 minutes)",82.3%
same,immuno-colocalization with PTH1R on cell surface,"PTH1R on cell surface; without PTH ligand, cells transfected with HA-PTH1R",22.8%
B2,effect on PTH-stimulated TCF/LEF luciferase (transcriptional) activity,[1],inhibited
same,effect on PTH-induced association of endogenous LRP6 with PTH1R,LRP6-PTH1R complex,blocked
same,effect on PTH-stimulated LRP6 phosphorylation,LRP6; endogenous LRP6,blocked
